Values of other authors in paper PMC12163019 (Frontiers in Pharmacology, 2025).

Set-up: method as in Danto et al., 2019a
Details: modified-release formulation; ref Danto et al., 2019a

half-life: 38.8 ± 21.1 h
Structure (SMILES): CC[C@@H]1[C@H](F)C(=O)N[C@@H]1COc1nccc2cc(C(N)=O)c(OC)cc12 [zimlovisertib]
